Measurements from the supplement of paper PMC10307832.

What was measured:
Assay in all cases: relative viability (nuclei count vs DMSO), 5 days (fraction); higher = more cells survive
AZ505 + Crizotinib = compound: C1CCC(CC1)N(CCNCCC2=C3C(=C(C=C2)O)NC(=O)CO3)C(=O)CCNCCC4=CC(=C(C=C4)Cl)Cl [AZ505] + C[C@@H](Oc1cc(-c2cnn(C3CCNCC3)c2)cnc1N)c1c(Cl)ccc(F)c1Cl [Crizotinib] (partner 1 µM)
Method in brief: (§1)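 One day after seeding in 1536-well plates, lung cancer cell lines were dosed by pin tool. Dosing was either single-drug or a fixed anchor-drug dose plus five library-drug doses (not always all listed) in √10 steps. After 5 days, nuclei were stained in one fix-and-stain step and counted on 4× images, and relative viability is the nuclei count of treated wells over that of vehicle wells, given as the median of duplicate plates.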

Dactolisib + Bortezomib = compound: Cn1c(=O)n(-c2ccc(C(C)(C)C#N)cc2)c2c3cc(-c4cnc5ccccc5c4)ccc3ncc21 [Dactolisib] + CC(C)C[C@H](NC(=O)[C@H](Cc1ccccc1)NC(=O)c1cnccn1)B(O)O [Bortezomib] (partner 0.002 µM)
Method in brief: as §1

AZ505 + Bortezomib = compound: C1CCC(CC1)N(CCNCCC2=C3C(=C(C=C2)O)NC(=O)CO3)C(=O)CCNCCC4=CC(=C(C=C4)Cl)Cl [AZ505] + CC(C)C[C@H](NC(=O)[C@H](Cc1ccccc1)NC(=O)c1cnccn1)B(O)O [Bortezomib] (partner 0.002 µM)
Method in brief: as §1

Dactolisib + AZD7762 = compound: Cn1c(=O)n(-c2ccc(C(C)(C)C#N)cc2)c2c3cc(-c4cnc5ccccc5c4)ccc3ncc21 [Dactolisib] + NC(=O)Nc1cc(-c2cccc(F)c2)sc1C(=O)N[C@H]1CCCNC1 [AZD7762] (partner 0.2 µM)
Method in brief: as §1

| Cell Line | relative viability (AZ505 + Crizotinib; first compound 0.08 µM) | relative viability (AZ505 + Crizotinib; first compound 0.253 µM) | relative viability (AZ505 + Crizotinib; first compound 0.8 µM) | relative viability (AZ505 + Crizotinib; first compound 2.53 µM) | relative viability (AZ505 + Crizotinib; first compound 8 µM) | relative viability (Dactolisib + Bortezomib; first compound 0.002 µM) | relative viability (Dactolisib + Bortezomib; first compound 0.006325 µM) | relative viability (Dactolisib + Bortezomib; first compound 0.02 µM) | relative viability (Dactolisib + Bortezomib; first compound 0.06325 µM) | relative viability (Dactolisib + Bortezomib; first compound 0.2 µM) | relative viability (AZ505 + Bortezomib; first compound 0.08 µM) | relative viability (AZ505 + Bortezomib; first compound 0.253 µM) | relative viability (AZ505 + Bortezomib; first compound 0.8 µM) | relative viability (AZ505 + Bortezomib; first compound 2.53 µM) | relative viability (AZ505 + Bortezomib; first compound 8 µM) | relative viability (Dactolisib + AZD7762; first compound 0.002 µM) | relative viability (Dactolisib + AZD7762; first compound 0.006325 µM) | relative viability (Dactolisib + AZD7762; first compound 0.02 µM) | relative viability (Dactolisib + AZD7762; first compound 0.06325 µM) | relative viability (Dactolisib + AZD7762; first compound 0.2 µM) |
| --- | --- | --- | --- | --- | --- | --- | --- | --- | --- | --- | --- | --- | --- | --- | --- | --- | --- | --- | --- | --- |
| NCI-H1650 | 0.985 | 1.12 | 0.991 | 0.963 | 0.915 | 0.224 | 0.213 | 0.212 | 0.208 | 0.228 | 0.234 | 0.189 | 0.205 | 0.248 | 0.188 |  |  |  |  |  |
| NCI-H1793 |  |  |  |  |  |  |  |  |  |  |  |  |  |  |  | 0.44 | 0.361 | 0.38 | 0.246 | 0.11 |
| COR-L 105 | 0.579 | 0.964 | 0.75 | 0.963 | 0.793 | 0.784 | 0.888 | 0.553 | 0.28 | 0.274 | 0.712 | 0.907 | 0.813 | 0.65 | 0.77 |  |  |  |  |  |
| NCI-H2228 | 0.373 | 0.518 | 0.369 | 0.467 | 0.342 | 1.08 | 0.81 | 0.541 | 0.259 | 0.18 | 0.907 | 1.15 | 0.856 | 0.864 | 0.828 |  |  |  |  |  |
| SW 900 |  |  |  |  |  |  |  |  |  |  |  |  |  |  |  | 0.607 | 0.526 | 0.596 | 0.435 | 0.224 |
| NCI-H661 |  | 0.941 |  | 0.977 | 0.942 | 0.659 | 0.87 | 0.67 | 0.397 | 0.288 | 0.798 | 1.01 | 0.716 | 0.787 | 0.732 |  |  |  |  |  |
| NCI-H1563 | 0.831 | 0.807 | 0.805 | 0.848 | 0.809 | 0.904 | 0.903 | 0.819 | 0.603 | 0.59 | 0.846 | 0.743 | 0.83 | 0.766 | 0.922 |  |  |  |  |  |
| A549 | 0.661 | 0.849 | 0.692 | 0.776 | 0.608 |  |  |  |  |  |  |  |  |  |  |  |  |  |  |  |
| NCI-H2342 |  |  |  |  |  |  |  |  |  |  |  |  |  |  |  | 0.511 | 0.49 | 0.444 | 0.471 | 0.413 |
| NCI-H2170 | 1.07 | 1.24 | 1.12 | 1.26 | 1.22 |  |  |  |  |  |  |  |  |  |  | 0.806 | 0.88 | 0.753 | 0.382 | 0.244 |
| NCI-H522 |  |  |  |  |  |  |  |  |  |  |  |  |  |  |  | 0.83 | 0.858 | 0.979 | 0.695 | 0.626 |
| NCI-H1395 |  |  |  |  |  |  |  |  |  |  |  |  |  |  |  | 0.375 | 0.373 | 0.391 | 0.373 | 0.355 |
| IA-LM | 0.695 | 0.769 | 0.861 | 0.75 | 1.07 | 0.828 | 0.691 | 0.511 | 0.145 | 0.0972 | 0.59 | 0.867 | 0.835 | 0.866 | 0.896 |  |  |  |  |  |
| NCI-H358 | 0.566 | 0.572 | 0.551 | 0.536 | 0.371 |  |  |  |  |  |  |  |  |  |  | 0.474 | 0.545 | 0.559 | 0.445 | 0.188 |
| EBC-1 | 0.21 | 0.198 | 0.178 | 0.203 | 0.184 | 0.625 | 0.523 | 0.373 | 0.216 | 0.191 | 0.479 | 0.519 | 0.452 | 0.533 | 0.515 |  |  |  |  |  |
